The text below walks through data of patent publication US20020165236A1, “Compounds for the treatment of protozoal diseases” (priority 2001, published 2002).

Experiment [1] has as its system multiresistant Dd2 strain of Plasmodium falciparum. Nature of the experiment: antiplasmodial action, [8-3H]hypoxanthine incorporation, Dd2 strain. To be noted: read-out: in vitro antiplasmodial activity (IC50 value class). The experiment is classed as cell-based. The procedure: For the determination of the antiplasmodial action of the compounds, the multiresistant Dd2 strain of Plasmodium falciparum was used. The incorporation of [8-^3H]hypoxanthine into the parasitic nucleic acids was measured. The plasmodia were incubated at 0.3% parasitaemia and an erythrocyte haematocrit of 2.5% in the presence of different concentrations of the compounds in a final volume of 200-μl. The medium employed was RPMI 1640 which contained 10% of heat-treated human serum and 3 mg/l of gentamycin. in the incubations, the concentrations of the compounds varied from 0.3 to 100 μM. After 48 h, each batch was treated with 50 µl of […] (1 mCi/ml) and incubated for a further 18 h. The cells were filtered off, washed and suspended in 20 μl of scintillation fluid. The radioactive hypoxanthine absorbed by the parasites was then quantified using a scintillation counter.
The results were presented graphically and the IC50 value was determined using a fitting function. The value IC50, the ‘inhibition constant’, indicates the value in μMol/1 at which 50% inhibition occurs.

Experiment [2] concerns 3D7 chloroquine sensitive strain of Plasmodium falciparum. Nature of the experiment: antiplasmodial activity against 3D7 strain. It counts as cell-based. Conditions: read-out: in vitro antiplasmodial activity (IC50 value class). The procedure: Antiplasmodial activity against the 3D7 chloroquine sensitive strain of Plasmodium falciparumwas determined as described elsewhere (J. Med. Chem. (2001) 44(19), 3187-3194).

Some results are limits rather than exact numbers.

A word on the IC50: it is the concentration needed to halve the response being measured. Turning to `N=C(N)c1cccc(NC(=O)Nc2cccc(S(N)(=O)=O)c2)c1` [Compound 24], the half-inhibitory concentration (IC50) is 10000 to 100000 nM in experiment [1] and 10 to 100 µM in experiment [2].
For `N=C(N)c1cccc(NC(=O)Nc2ccc3c(c2)S(=O)(=O)C=C3)c1` [Compound 18], in that order: < 1000 nM and < 1 µM.
For `N=C(N)c1cccc(NC(=O)Nc2cc(C(F)(F)F)cc(C(F)(F)F)c2)c1` [Compound 13], in that order: 1000 to 10000 nM and 1 to 10 µM.
The like results for `N=C(N)c1cccc(NC(=O)Nc2cccc(S(=O)(=O)c3ccccc3)c2)c1` [Compound 62] were, in that order, 1000 to 10000 nM and 1 to 10 µM.
On to `N=C(N)c1cccc(NC(=O)Nc2cccc(C(F)(F)F)c2)c1` [Compound 10], for which the IC50 in experiment [1] is 1000 to 10000 nM; in experiment [2], 1 to 10 µM.
The like results for `N=C(N)c1cccc(NC(=O)Nc2ccc(S(=O)(=O)c3ccccc3)cc2)c1` [Compound 61] were, in that order, 1000 to 10000 nM and 1 to 10 µM.
The like results for `N=C(N)c1ccc(NC(=O)Nc2cc(C(F)(F)F)cc(C(F)(F)F)c2)cc1` [Compound 15] were, in that order, 1000 to 10000 nM and 1 to 10 µM.
The like results for `N=C(N)c1cccc(NC(=O)Nc2ccc(S(=O)(=O)NCc3ccc(OC(F)(F)F)cc3)cc2)c1` [Compound 34] were, in that order, < 1000 nM and 1 to 10 µM.
Consider `N=C(N)c1ccc(NC(=O)Nc2ccc(S(=O)(=O)c3ccccc3)cc2)cc1` [Compound 64], for which the half-inhibitory concentration (IC50) was < 1000 nM in experiment [1] and 1 to 10 µM in experiment [2].
For `N=C(N)c1cccc(NC(=O)Nc2cccc([N+](=O)[O-])c2)c1` [Compound 5], the IC50 in experiment [1] is 10000 to 100000 nM; in experiment [2] it was 1 to 10 µM.
Regarding `N=C(N)c1cccc(NC(=O)Nc2ccc(Br)cc2Br)c1` [Compound 14], the concentration for half-maximal inhibition (IC50) in experiment [1] lay within 1000 to 10000 nM.
The same measure, in the same setting: in the case of `N=C(N)c1cccc(NC(=O)Nc2cccc(NC(=O)c3ccc(-c4ccccc4)cc3)c2)c1` [Compound 70] it was 1000 to 10000 nM; in that of `N=C(N)c1cccc(NC(=O)Nc2ccc(S(=O)(=O)NCc3ccccc3)cc2)c1` [Compound 33, 3-[3-(4-Benzylsulfamoyl-phenyl)-ureido]-benzamidine], < 1000 nM.
Still for that read-out and setting: under `N=C(N)c1cccc(NC(=O)Nc2ccc(S(=O)(=O)NCc3cc(F)c(F)cc3F)cc2)c1` [Compound 41] stands 1000 to 10000 nM.
For the compound `Cc1ccc(C(=O)Nc2ccc(NC(=O)Nc3cccc(C(=N)N)c3)cc2O)cc1` [Compound 67], the IC50 in experiment [1] is 1000 to 10000 nM; in experiment [2] it was 1 to 10 µM.
Turning to `N=C(N)c1cccc(NC(=O)Nc2ccc(S(=O)(=O)NC(c3ccccc3)c3ccccc3)cc2)c1` [Compound 23, 3-{3-[4-(benzhydrylsulfamoyl)-phenyl]-ureido}-benzamidine], the IC50 in experiment [1] is < 1000 nM.
On to `N=C(Nc1cccnc1)c1cccc(NC(=O)Nc2ccc(S(=O)(=O)NCc3ccc(S(N)(=O)=O)cc3)cc2)c1` [Compound 89], for which the IC50 in experiment [1] was in the range of 1000 to 10000 nM.
Same read-out and setting: in the case of `N=C(N)c1ccc(NC(=O)Nc2ccc(S(=O)(=O)NCc3ccc(F)cc3F)cc2)cc1` [Compound 55] it was < 1000 nM; in that of `COC(=O)c1cc(NC(=O)Nc2ccc(C(=N)N)cc2)cc(C(F)(F)F)c1` [Compound 16], 1000 to 10000 nM.
With `N#Cc1ccccc1NC(=O)Nc1cccc(C(=N)N)c1` [Compound 4], in experiment [1], the half-maximal inhibitory concentration (IC50) fell in the range of 1000 to 10000 nM.
On the same count and under the same terms, under `COc1ccccc1C(=O)Nc1cccc(NC(=O)Nc2cccc(C(=N)N)c2)c1` [Compound 68] stands 1000 to 10000 nM; under `N=C(N)c1cccc(NC(=O)Nc2ccc(C(=O)NCc3ccc(S(N)(=O)=O)cc3)cc2)c1` [Compound 73, 4-[3-(3-carbamimidoylphenyl)-ureido]-N-(4-sulfamoylbenzyl)-benzamide], 1000 to 10000 nM.
The same measure, in the same setting: under `COC(=O)c1cc(NC(=S)Nc2cccc(C(=N)N)c2)cc(C(F)(F)F)c1` [Compound 79] stands < 1000 nM; under `N=C(N)c1cccc(NC(=O)Nc2ccc(S(=O)(=O)NCc3ccc(F)cc3F)cc2)c1` [Compound 43], 1000 to 10000 nM; under `CCN(CC)C(=O)c1cccc(NC(=S)Nc2cccc(C(=N)N)c2)c1` [Compound 80], < 1000 nM.
Still for that read-out and setting: in the case of `N=C(N)c1cccc(NC(=O)Nc2ccc(S(=O)(=O)NCc3ccc(S(N)(=O)=O)cc3)cc2)c1` [Compound 35, 3-{3-[4-(4-sulfamoyl-benzylsulfamoyl)-phenyl]-ureido}-benzamidine] it was < 1000 nM; in that of `N=C(Nc1ccc(-c2ccccc2)cc1)c1cccc(NC(=O)Nc2cccc(C(F)(F)F)c2)c1` [Compound 100], 1000 to 10000 nM; in that of `CCCCNS(=O)(=O)c1ccc(NC(=O)Nc2cccc(C(=N)N)c2)cc1` [Compound 21], 1000 to 10000 nM.
With `CS(=O)(=O)c1ccc2nc(NC(=O)Nc3cccc(C(=N)N)c3)sc2c1` [Compound 6], the IC50 in experiment [1] was 10000 to 100000 nM.
Turning to `N=C(N)c1cccc(NC(=O)Nc2ccc(S(=O)(=O)NNC(=O)c3ccc(-c4ccccc4)cc3)cc2)c1` [Compound 60], the IC50 in experiment [1] lay in the range of 1000 to 10000 nM.
On the same count and under the same terms, in the case of `N=C(N)c1cccc(NC(=S)Nc2ccc3c(c2)S(=O)(=O)C=C3)c1` [Compound 76] it was < 1000 nM.
